{
  "source": "paper PMC11219833",
  "about": "“Design and radiosynthesis of class-IIa HDAC inhibitor with high molar activity via repositioning the ^18F-radiolabel” (Scientific Reports, 2024)",
  "key": {"recombinant human HDAC11": {"biological_target": "T1, recombinant human HDAC11 (Homo sapiens, UniProt Q96DB2)", "T1 construct": "purchased BPS Bioscience, Inc", "T1 sequence (Q96DB2 1-347)": "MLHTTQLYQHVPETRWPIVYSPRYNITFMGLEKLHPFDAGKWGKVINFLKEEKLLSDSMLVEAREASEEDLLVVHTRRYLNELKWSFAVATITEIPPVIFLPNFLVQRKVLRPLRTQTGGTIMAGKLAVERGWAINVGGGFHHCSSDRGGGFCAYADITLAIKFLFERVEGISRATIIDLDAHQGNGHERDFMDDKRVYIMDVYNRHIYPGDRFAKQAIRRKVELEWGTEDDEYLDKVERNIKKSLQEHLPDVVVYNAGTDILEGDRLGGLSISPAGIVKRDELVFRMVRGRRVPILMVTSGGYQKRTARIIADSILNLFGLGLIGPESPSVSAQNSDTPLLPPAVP", "assay": "HDAC isoform inhibition fluorogenic assay (BPS Bioscience kit)", "assay_type": "biochemical", "conditions": "class-IV", "text": "(§1) We utilized the well-established fluorogenic assay to screen NT376 against recombinant human HDAC isoforms and against endogenous HDACs in HT-29 cells. The class IIa HDAC fluorogenic assay functions in a two-step process: first, the class IIa HDAC removes the trifluoroacetate (TFA) from TFA-lysine substrate to generate free lysine which is recognized by trypsin and releases a fluorescent fluorophore (intact substrate is not recognized by trypsin) that can be detected using microplate reader. The IC50 was determined using nonlinear fit curves (GraphPad Prism) (% HDAC activity inhibition vs. compound concentration). The IC50 measurements were performed in triplicates and experiments were repeated twice with known HDAC inhibitors NT160 and SAHA used as positive and negative controls respectively.\n(§2) Preparation of NT376: A 1.0 mM stock solution of NT376 was prepared in 100% DMSO. 11-dilutions of NT376 were then prepared in HDAC assay buffer with the DMSO adjusted to 2.5% final concentration in the assay medium.\n(§3) NT376 was screened against recombinant human HDACs isoforms using the commercially available HDACs enzyme assay kits (BPS Bioscience, Inc.). The experiments were performed according to the manufacturer protocol."}, "recombinant human HDAC6": {"biological_target": "T2, recombinant human HDAC6 (Homo sapiens, UniProt Q9UBN7)", "T2 construct": "purchased BPS Bioscience, Inc", "T2 sequence (Q9UBN7 1-1215)": "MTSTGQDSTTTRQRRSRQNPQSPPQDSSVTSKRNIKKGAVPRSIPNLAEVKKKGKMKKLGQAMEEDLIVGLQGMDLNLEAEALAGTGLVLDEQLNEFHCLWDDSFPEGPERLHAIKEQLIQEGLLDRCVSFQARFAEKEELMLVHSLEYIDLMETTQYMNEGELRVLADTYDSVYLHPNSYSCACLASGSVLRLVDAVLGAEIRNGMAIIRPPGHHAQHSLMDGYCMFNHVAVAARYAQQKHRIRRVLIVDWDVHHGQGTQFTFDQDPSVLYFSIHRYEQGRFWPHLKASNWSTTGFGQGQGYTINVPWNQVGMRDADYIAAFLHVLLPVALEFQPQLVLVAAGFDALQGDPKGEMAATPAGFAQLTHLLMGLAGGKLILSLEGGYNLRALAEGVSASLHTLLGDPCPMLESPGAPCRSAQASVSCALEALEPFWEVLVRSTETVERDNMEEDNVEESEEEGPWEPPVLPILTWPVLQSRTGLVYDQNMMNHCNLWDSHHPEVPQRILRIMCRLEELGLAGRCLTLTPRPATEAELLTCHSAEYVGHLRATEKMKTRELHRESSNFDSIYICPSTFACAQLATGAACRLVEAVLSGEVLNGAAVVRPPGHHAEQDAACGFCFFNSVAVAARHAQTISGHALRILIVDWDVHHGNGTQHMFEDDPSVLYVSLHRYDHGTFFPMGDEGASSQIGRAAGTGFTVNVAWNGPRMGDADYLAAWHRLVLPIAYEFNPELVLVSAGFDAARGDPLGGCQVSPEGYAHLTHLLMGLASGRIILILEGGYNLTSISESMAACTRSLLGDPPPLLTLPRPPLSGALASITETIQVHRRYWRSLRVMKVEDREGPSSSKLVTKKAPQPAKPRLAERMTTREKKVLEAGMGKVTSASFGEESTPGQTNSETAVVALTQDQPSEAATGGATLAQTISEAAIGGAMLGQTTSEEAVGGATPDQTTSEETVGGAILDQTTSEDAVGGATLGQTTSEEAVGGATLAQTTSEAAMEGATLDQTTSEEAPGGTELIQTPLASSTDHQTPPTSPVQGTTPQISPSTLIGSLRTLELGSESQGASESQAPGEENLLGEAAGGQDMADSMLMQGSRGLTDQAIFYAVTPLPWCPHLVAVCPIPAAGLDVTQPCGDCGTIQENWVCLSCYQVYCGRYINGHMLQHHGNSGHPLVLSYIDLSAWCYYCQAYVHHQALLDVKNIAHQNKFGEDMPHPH", "assay": "HDAC isoform inhibition fluorogenic assay (BPS Bioscience kit)", "assay_type": "biochemical", "conditions": "class-IIb", "text": "as §1, §2, §3"}, "recombinant human HDAC4": {"biological_target": "T3, recombinant human HDAC4 (Homo sapiens, UniProt P56524)", "T3 construct": "purchased BPS Bioscience, Inc", "T3 sequence (P56524 whole entry, canonical isoform)": "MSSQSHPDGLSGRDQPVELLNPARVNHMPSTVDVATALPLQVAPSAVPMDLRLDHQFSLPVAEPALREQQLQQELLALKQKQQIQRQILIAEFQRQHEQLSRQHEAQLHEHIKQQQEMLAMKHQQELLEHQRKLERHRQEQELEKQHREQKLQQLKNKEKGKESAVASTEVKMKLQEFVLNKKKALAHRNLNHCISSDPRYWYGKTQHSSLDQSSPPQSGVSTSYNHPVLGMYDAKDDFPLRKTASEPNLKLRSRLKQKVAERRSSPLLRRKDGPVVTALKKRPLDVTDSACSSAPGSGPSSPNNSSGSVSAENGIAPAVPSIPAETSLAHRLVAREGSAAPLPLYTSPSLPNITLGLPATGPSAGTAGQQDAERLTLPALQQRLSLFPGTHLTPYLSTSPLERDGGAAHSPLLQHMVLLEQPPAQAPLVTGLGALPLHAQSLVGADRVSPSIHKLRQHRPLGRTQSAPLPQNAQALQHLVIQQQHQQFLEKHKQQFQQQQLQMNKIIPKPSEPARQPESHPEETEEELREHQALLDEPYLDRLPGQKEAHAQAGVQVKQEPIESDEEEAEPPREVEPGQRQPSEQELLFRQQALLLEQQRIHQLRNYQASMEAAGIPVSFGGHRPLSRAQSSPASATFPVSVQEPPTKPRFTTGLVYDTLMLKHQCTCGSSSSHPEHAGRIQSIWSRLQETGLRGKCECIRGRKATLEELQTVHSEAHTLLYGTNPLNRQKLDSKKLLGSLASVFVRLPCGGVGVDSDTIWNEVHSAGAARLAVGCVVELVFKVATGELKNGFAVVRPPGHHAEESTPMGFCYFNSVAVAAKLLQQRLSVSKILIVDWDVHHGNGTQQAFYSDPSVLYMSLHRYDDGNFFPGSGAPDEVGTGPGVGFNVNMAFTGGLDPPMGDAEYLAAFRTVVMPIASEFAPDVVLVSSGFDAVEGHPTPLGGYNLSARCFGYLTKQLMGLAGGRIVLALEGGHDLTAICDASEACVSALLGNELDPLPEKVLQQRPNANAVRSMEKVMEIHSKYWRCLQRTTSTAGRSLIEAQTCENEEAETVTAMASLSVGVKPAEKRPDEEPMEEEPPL", "assay": "HDAC isoform inhibition fluorogenic assay (BPS Bioscience kit)", "assay_type": "biochemical", "text": "as §1, §2, §3"}, "recombinant human HDAC1": {"biological_target": "T4, recombinant human HDAC1 (Homo sapiens, UniProt Q13547)", "T4 construct": "purchased BPS Bioscience, Inc", "T4 sequence (Q13547 whole entry, canonical isoform)": "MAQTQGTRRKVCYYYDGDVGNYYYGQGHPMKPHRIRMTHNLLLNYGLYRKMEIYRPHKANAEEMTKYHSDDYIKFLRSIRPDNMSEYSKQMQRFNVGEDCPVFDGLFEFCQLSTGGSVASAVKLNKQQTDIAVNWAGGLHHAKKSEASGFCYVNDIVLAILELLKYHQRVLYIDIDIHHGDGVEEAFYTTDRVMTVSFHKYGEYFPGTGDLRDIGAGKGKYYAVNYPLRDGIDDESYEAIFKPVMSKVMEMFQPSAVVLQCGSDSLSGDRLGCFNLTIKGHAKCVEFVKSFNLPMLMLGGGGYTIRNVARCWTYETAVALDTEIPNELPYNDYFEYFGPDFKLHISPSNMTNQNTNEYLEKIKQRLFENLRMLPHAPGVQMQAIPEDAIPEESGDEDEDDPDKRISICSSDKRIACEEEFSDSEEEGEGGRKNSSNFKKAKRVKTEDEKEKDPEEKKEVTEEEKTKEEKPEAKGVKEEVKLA", "assay": "HDAC isoform inhibition fluorogenic assay (BPS Bioscience kit)", "assay_type": "biochemical", "conditions": "class-I", "text": "as §1, §2, §3"}, "recombinant human HDAC5": {"biological_target": "T5, recombinant human HDAC5 (Homo sapiens, UniProt Q9UQL6)", "T5 construct": "purchased BPS Bioscience, Inc", "T5 sequence (Q9UQL6 whole entry, canonical isoform)": "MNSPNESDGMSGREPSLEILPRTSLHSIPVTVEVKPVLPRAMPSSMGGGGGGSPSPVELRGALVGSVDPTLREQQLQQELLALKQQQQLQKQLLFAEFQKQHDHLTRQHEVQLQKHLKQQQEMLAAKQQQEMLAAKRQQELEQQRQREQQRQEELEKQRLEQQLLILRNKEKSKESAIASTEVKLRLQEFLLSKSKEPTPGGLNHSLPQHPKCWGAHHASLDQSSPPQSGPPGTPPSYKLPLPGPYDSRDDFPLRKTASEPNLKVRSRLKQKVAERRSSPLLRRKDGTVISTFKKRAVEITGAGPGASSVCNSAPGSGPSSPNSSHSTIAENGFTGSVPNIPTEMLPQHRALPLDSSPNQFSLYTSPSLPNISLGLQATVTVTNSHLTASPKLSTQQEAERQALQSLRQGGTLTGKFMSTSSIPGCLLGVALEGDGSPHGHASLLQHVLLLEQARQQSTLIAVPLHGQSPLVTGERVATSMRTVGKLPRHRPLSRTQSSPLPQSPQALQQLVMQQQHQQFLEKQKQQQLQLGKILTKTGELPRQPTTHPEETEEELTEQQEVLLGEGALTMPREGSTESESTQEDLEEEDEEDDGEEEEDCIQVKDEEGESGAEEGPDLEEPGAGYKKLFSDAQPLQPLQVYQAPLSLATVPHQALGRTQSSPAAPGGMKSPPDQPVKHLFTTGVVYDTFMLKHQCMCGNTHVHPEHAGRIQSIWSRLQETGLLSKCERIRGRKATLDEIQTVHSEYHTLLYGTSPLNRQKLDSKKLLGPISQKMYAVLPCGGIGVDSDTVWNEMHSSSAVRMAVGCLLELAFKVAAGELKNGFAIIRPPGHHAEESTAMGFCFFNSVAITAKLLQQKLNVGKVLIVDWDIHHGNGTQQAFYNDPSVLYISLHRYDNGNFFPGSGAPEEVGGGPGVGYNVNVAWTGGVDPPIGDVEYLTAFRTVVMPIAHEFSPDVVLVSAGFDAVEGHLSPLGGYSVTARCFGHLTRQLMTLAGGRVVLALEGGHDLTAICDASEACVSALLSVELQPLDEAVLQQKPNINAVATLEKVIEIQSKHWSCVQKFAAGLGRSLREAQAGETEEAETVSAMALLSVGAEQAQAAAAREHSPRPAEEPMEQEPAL", "assay": "HDAC isoform inhibition fluorogenic assay (BPS Bioscience kit)", "assay_type": "biochemical", "text": "as §1, §2, §3"}, "[1]": {"tested_on": "endogenous class-IIa HDACs in HT-29 cells", "assay": "Whole-cell assay of endogenous class-IIa HDAC inhibition in HT-29 cells (Boc-Lys-TFA substrate)", "assay_type": "cell-based", "conditions": "Homo sapiens, class-IIa selective substrate Boc-Lys-TFA, ± SEM", "text": "(§4) The next step was to determine the specificity, selectivity and potency of NT376 to class-IIa HDACs against endogenous class-IIa HDACs in HT-29 cells using the class-distinguishing substrates similar to our previous work[23].\nas §1, with “The IC50 measurements were performed in triplicates and experiments were repeated twice with known HDAC inhibitors NT160 and SAHA used as positive and negative controls respectively.” left out\n(§5) The cell-based HDAC inhibitor assays were performed in HT-29 cells (ATCC). […] The cells were then washed with HDAC Assay Buffer (RPMI 1640 media without phenol red, Gibco, containing 0.1% FBS), re-collected by centrifugation, resuspended in HDAC Assay Buffer, and counted. […] Fluorescent counts were read with a microplate reader at an excitation wavelength of 360 nm and emitted light was detected at 460 nm."}, "[2]": {"tested_on": "endogenous class-I/IIb HDACs in HT-29 cells", "assay": "Whole-cell assay of endogenous class-I/IIb HDAC inhibition in HT-29 cells (Boc-Lys-Ac substrate)", "assay_type": "cell-based", "conditions": "Homo sapiens, class-I/IIb selective substrate Boc-Lys-Ac", "text": "as §4\nas §1, with “The IC50 measurements were performed in triplicates and experiments were repeated twice with known HDAC inhibitors NT160 and SAHA used as positive and negative controls respectively.” left out\nas §5"}},
  "data": [
    {"smiles": "C[C@H](CN(C)Cc1ccccc1)NC(=O)c1ccc(-c2noc(C(F)(F)F)n2)cc1F", "note": "[NT376, (R)-N-(1-(benzyl(methyl)amino)propan-2-yl)-2-fluoro-4-(5-(trifluoromethyl)-1,2,4-oxadiazol-3-yl)benzamide]", "values": [
      {"measurement": "IC50", "setting": "recombinant human HDAC11", "result": 4850, "unit": "nM"},
      {"measurement": "IC50", "setting": "recombinant human HDAC6", "result": 5030, "unit": "nM"},
      {"measurement": "IC50", "setting": "recombinant human HDAC4", "result": 1.26, "unit": "nM"},
      {"measurement": "IC50", "setting": "recombinant human HDAC1", "result": 1480, "unit": "nM"},
      {"measurement": "IC50", "setting": "recombinant human HDAC5", "result": 2.85, "unit": "nM"},
      {"measurement": "IC50", "setting": "[1]", "result": "32 ± 7.6", "unit": "nM"},
      {"measurement": "IC50", "setting": "[2]", "result": "> 4000", "unit": "nM"}
    ]}
  ]
}
